Measurements reported in US8378104B2 (OSI Pharmaceuticals, LLC, priority 2010, dated 2013).
Structures can show the parent of a compound that is named as a salt.

Columns and labels:
[1] = biological target: T1, TAK1-TAB1 fusion protein (Homo sapiens, UniProt O43318); experiment: TAK1 biochemical assay (AlphaScreen, GST-MAP2K7 substrate); settings: TAK1-TAB1 fusion protein, GST-MAP2K7 substrate; read-out: mean TAK1 IC50 (Col. A)
T1 construct: purchased Carna
T1 sequence (O43318 with tags, fused parts or gaps limits assumed): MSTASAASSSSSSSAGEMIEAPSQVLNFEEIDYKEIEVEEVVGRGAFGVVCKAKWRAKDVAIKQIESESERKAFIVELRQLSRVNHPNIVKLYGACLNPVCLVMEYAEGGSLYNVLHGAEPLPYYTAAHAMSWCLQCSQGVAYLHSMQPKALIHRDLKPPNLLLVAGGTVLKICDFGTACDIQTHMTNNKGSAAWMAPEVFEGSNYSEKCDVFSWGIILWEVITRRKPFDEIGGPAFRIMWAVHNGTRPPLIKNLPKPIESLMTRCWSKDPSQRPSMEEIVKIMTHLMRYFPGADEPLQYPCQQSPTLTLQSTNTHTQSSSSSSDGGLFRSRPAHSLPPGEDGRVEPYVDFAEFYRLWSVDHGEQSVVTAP

[2] = test system: pJNK in HCT-116 cells; experiment: Phospho-JNK (Thr183/Tyr185) Meso Scale ELISA assay, TNFα-stimulated HCT-116 cells; format: cell-based; settings: Homo sapiens, read-out: mean HCT-116 pJNK ELISA IC50 (Col. B)
Summary of the method: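 Meso Scale ELISA read of phospho-JNK (Thr183/Tyr185) in lysed HCT-116 cells. Cells were serum-reduced to 1% FCS for 2 hours, exposed to test drug for 4 hrs at 37° C, then given 10 ng/mL TNFα (final) for 10 minutes before lysis.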

| Compound | IC50 [1] [nM] | IC50 [2] [nM] |
| --- | --- | --- |
| CC(C)(C)OC(=O)N1[C@@H]2CC[C@H]1C[C@H](n1cc(-c3cnc(N)c4oc(-c5csc6cnccc56)cc34)cn1)C2 [Example 299, tert-butyl (3-exo)-3-{4-[7-amino-2-(thieno[2,3-c]pyridin-3-yl)furo[2,3-c]pyridin-4-yl]-1H-pyrazol-1-yl}-8-azabicyclo[3.2.1]octane-8-carboxylate] | 100 to 1000 | 100 to 1000 |
| CC(=O)N1[C@@H]2CC[C@H]1C[C@H](n1cc(-c3cnc(N)c4oc(-c5cccc6cnsc56)cc34)cn1)C2 [Example 327, 1-[(3-exo)-3-{4-[7-amino-2-(1,2-benzisothiazol-7-yl)furo[2,3-c]pyridin-4-yl]-1H-pyrazol-1-yl}-8-azabicyclo[3.2.1]oct-8-yl]ethanone] | < 100 | < 100 |
| Nc1ncc(-c2cnn(C3CCN(C(=O)NCC4CCCCC4)CC3)c2)c2cc(-c3cccc4cnsc34)oc12 [Example 341, 4-[4-(7-amino-2-benzo[d]isothiazol-7-yl-furo[2,3-c]pyridin-4-yl)-pyrazol-1-yl]-piperidine-1-carboxylic acid cyclohexylmethyl-amide] | 100 to 1000 | < 100 |
| N#Cc1ccc2cnsc2c1-c1cc2c(-c3cnn([C@H]4CC[C@H](O)CC4)c3)cnc(N)c2o1 [Example 372, 7-{7-amino-4-[1-(trans-4-hydroxycyclohexyl)-1H-pyrazol-4-yl]furo[2,3-c]pyridin-2-yl}-1,2-benzothiazole-6-carbonitrile.diformate] | 1000 to 10000 | 100 to 1000 |
| CC(=O)N1CCC(n2cc(-c3cnc(N)c4oc(-c5cc(F)cc6cnsc56)cc34)cn2)CC1 [Example 237, 1-(4-{4-[7-amino-2-(5-fluoro-1,2-benzothiazol-7-yl)furo[2,3-c]pyridin-4-yl]-1H-pyrazol-1-yl}piperidin-1-yl)ethanone diformate salt] | < 100 | < 100 |
| Nc1ncc(-c2cnn([C@H]3CC[C@H](O)CC3)c2)c2c(Cl)c(-c3cccc4ncsc34)oc12 [Example 288, trans-4-{4-[7-amino-2-(1,3-benzothiazol-7-yl)-3-chlorofuro[2,3-c]pyridin-4-yl]-1H-pyrazol-1-yl}cyclohexanol] | < 100 | < 100 |
| COCc1nc2cccc(-c3cc4c(-c5cnn(C6CCN(C(C)=O)CC6)c5)cnc(N)c4o3)c2s1 [Example 348, 1-[4-(4-{7-amino-2-[2-(methoxymethyl)-1,3-benzothiazol-7-yl]furo[2,3-c]pyridin-4-yl}-1H-pyrazol-1-yl)piperidin-1-yl]ethanone trifluoroacetate] | < 100 | < 100 |
| CC(=O)N1CCC(n2cc(-c3cnc(N)c4oc(-c5nn(C)c6cnccc56)cc34)cn2)CC1 [Example 363, 1-(4-{4-[7-amino-2-(1-methyl-1H-pyrazolo[3,4-c]pyridin-3-yl)furo[2,3-c]pyridin-4-yl]-1H-pyrazol-1-yl}piperidin-1-yl)ethanone trifluoroacetic acid salt] | < 100 | 100 to 1000 |
| CNc1nc2cccc(-c3cc4c(-c5cnn([C@H]6CC[C@H](O)CC6)c5)cnc(N)c4o3)c2s1 [Example 351, trans-4-(4-{7-amino-2-[2-(methylamino)-1,3-benzothiazol-7-yl]furo[2,3-c]pyridin-4-yl}-1H-pyrazol-1-yl)cyclohexanol Trifluoroacetate (Salt)] | < 100 | < 100 |
| COc1nn([C@H]2CC[C@H](O)CC2)cc1-c1cnc(N)c2oc(-c3cccc4nnsc34)cc12 [Example 347, trans-4-{4-[7-amino-2-(1,2,3-benzothiadiazol-7-yl)furo[2,3-c]pyridin-4-yl]-3-methoxy-1H-pyrazol-1-yl}cyclohexanol diformate salt] | < 100 | < 100 |
| N#Cc1cc(-c2cc3c(-c4cnn([C@H]5CC[C@H](O)CC5)c4)cnc(N)c3o2)c2snnc2c1 [Example 370, 7-{7-amino-4-[1-(trans-4-hydroxycyclohexyl)-1H-pyrazol-4-yl]furo[2,3-c]pyridin-2-yl}-1,2,3-benzothiadiazole-5-carbonitrile] | 100 to 1000 | < 100 |
| Nc1ncc(-c2cnn([C@@H]3C[C@H]4CC[C@@H](C3)N4)c2)c2cc(-c3csc4cnccc34)oc12 [Example 320, 4-{1-[(3-exo)-8-azabicyclo[3.2.1]oct-3-yl]-1H-pyrazol-4-yl}-2-(thieno[2,3-c]pyridin-3-yl)furo[2,3-c]pyridin-7-amine] | < 100 | 100 to 1000 |
| CNc1ncc(-c2cnn([C@H]3CC[C@H](O)CC3)c2)c2cc(-c3cccc4cnsc34)oc12 [Example 282, trans-4-{4-[2-(1,2-benzothiazol-7-yl)-7-(methylamino)furo[2,3-c]pyridin-4-yl]-1H-pyrazol-1-yl}cyclohexanol] | 100 to 1000 | 100 to 1000 |

Now from value to compound:

| IC50 [1] [nM] | IC50 [2] [nM] | Compound |
| --- | --- | --- |
| < 100 | < 100 | Nc1ncc(-c2cnn([C@@H]3CCC[C@H](O)C3)c2)c2cc(-c3csc4cnccc34)oc12 (relative stereo) [Example 310, cis-3-[4-(7-amino-2-thieno[2,3-c]pyridin-3-yl-furo[2,3-c]pyridin-4-yl)-pyrazol-1-yl]-cyclohexanol] |
| < 100 | < 100 | Nc1ncc(-c2cnn(C3CCN(C(=O)C4CC4)CC3)c2)c2cc(-c3csc4cnccc34)oc12 [Example 228, (4-{4-[7-amino-2-(thieno[2,3-c]pyridin-3-yl)furo[2,3-c]pyridin-4-yl]-1H-pyrazol-1-yl}piperidin-1-yl)(cyclopropyl)methanone diformate salt] |
| 100 to 1000 | 1000 to 10000 | CC(=O)N1CCC(n2cc(-c3cnc(N)c4oc(-c5csc6cnc(O)cc56)cc34)cn2)CC1 [Example 251, 1-(4-{4-[7-amino-2-(5-hydroxythieno[2,3-c]pyridin-3-yl)furo[2,3-c]pyridin-4-yl]-1H-pyrazol-1-yl}piperidin-1-yl)ethanone bis(trifluoroacetate)] |
| < 100 | < 100 | CC(=O)N1CCC(n2cc(-c3cnc(N)c4oc(-c5csc6cnc(F)cc56)cc34)cn2)CC1 [Example 248, 1-(4-{4-[7-amino-2-(5-fluorothieno[2,3-c]pyridin-3-yl)furo[2,3-c]pyridin-4-yl]-1H-pyrazol-1-yl}piperidin-1-yl)ethanone bis(trifluoroacetate)] |
| < 100 | 100 to 1000 | Nc1ncc(-c2cnn([C@@H]3CC[C@@H](O)C3)c2)c2cc(-c3csc4cnccc34)oc12 [Example 308, (1R,3R)-3-[4-(7-amino-2-thieno[2,3-c]pyridin-3-yl-furo[2,3-c]pyridin-4-yl)-pyrazol-1-yl]-cyclopentanol] |
| < 100 | 100 to 1000 | Nc1ncc(-c2cnn(C3CCC(O)C3)c2)c2cc(-c3csc4cnccc34)oc12 (stereo not shown) [Example 306, 3-[4-(7-amino-2-thieno[2,3-c]pyridin-3-yl-furo[2,3-c]pyridin-4-yl)-pyrazol-1-yl]-cyclopentanol] |
| < 100 | 100 to 1000 | CC(=O)N1CCC(n2cc(-c3cnc(N)c4oc(-c5cn(C)c6cnccc56)cc34)cn2)CC1 [Example 266, 1-(4-{4-[7-amino-2-(1-methyl-1H-pyrrolo[2,3-c]pyridin-3-yl)-furo[2,3-c]pyridin-4-yl]-pyrazol-1-yl}-piperidin-1-yl)-ethanone] |
